Laboratory results published in patent publication US20230085307A1, “PYRIDAZINONE COMPOUND AND HERBICIDE” (NISSAN CHEMICAL CORPORATION, priority 2019, published 2023).

What follows are molecules tested on persian speedwell (assay: Test Example 4: herbicidal effect by soil treatment (Table 19, symbol R)). Conditions: 320 g/ha.
Assay type: in vivo, Persian speedwell (Veronica persica)
How it was run: (§1)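 Scoring uses the grading scale of an earlier test, three weeks post-application. Treatment consists of spraying a diluted emulsion formulation across the surface of sterilized diluvial soil in which seeds are buried near 1.5 cm deep; boxes are kept in a greenhouse between 25° C. and 30° C.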

SMILES | herbicidal effect rating, R: persian speedwell
CCCC(=O)Oc1c(C)nn(C)c(=O)c1-c1c(-c2ccccc2OC(F)(F)F)sc2ccc(F)cc12 [2-044] | 4 (Herbicidal rate of 70% or more and less than 90%)
CCCC(=O)Oc1c(C)nn(C)c(=O)c1-c1c(-c2ccc(Cl)cc2)sc2ccc(F)cc12 [2-011] | 4 (Herbicidal rate of 70% or more and less than 90%)

Each molecule was assayed on velvetleaf (assay: Test Example 4: herbicidal effect by soil treatment (Table 19, symbol M)). Conditions: 320 g/ha.
Assay type: in vivo, velvetleaf (Abutilon theophrasti)
How it was run: as §1

SMILES | herbicidal effect rating, M: velvetleaf
CCCC(=O)Oc1c(C)nn(C)c(=O)c1-c1c(-c2ccccc2OC(F)(F)F)sc2ccc(F)cc12 [2-044] | 3 (Herbicidal rate of 40% or more and less than 70%)
CCCC(=O)Oc1c(C)nn(C)c(=O)c1-c1c(-c2ccc(Cl)cc2)sc2ccc(F)cc12 [2-011] | 3 (Herbicidal rate of 40% or more and less than 70%)

What follows are molecules tested on blackgrass (assay: Test Example 4: herbicidal effect by soil treatment (Table 19, symbol J)). Conditions: 320 g/ha.
Assay type: in vivo, blackgrass (Alopecurus myosuroides)
How it was run: as §1

SMILES | herbicidal effect rating, J: blackgrass
CCCC(=O)Oc1c(C)nn(C)c(=O)c1-c1c(-c2ccccc2OC(F)(F)F)sc2ccc(F)cc12 [2-044] | 0 (Herbicidal rate of 5% or less (almost no effect))
CCCC(=O)Oc1c(C)nn(C)c(=O)c1-c1c(-c2ccc(Cl)cc2)sc2ccc(F)cc12 [2-011] | 0 (Herbicidal rate of 5% or less (almost no effect))

The molecules below were run on Japanese bulrush (assay: Test Example 2: herbicidal activity, application during weed generation under submerged conditions (Table 17, symbol B)). Conditions: AAH 320 g/ha; application during weed generation, submerged conditions.
Assay type: in vivo, Japanese bulrush (Schoenoplectus juncoides)
How it was run: (§2)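 Alluvial soil in Wagner pots was flooded to 4 cm depth and sown with the three weeds together; pots were kept in a greenhouse at 25° C. to 30° C. At the one to two leaf stage, an emulsion formulation diluted in water to a set rate went onto the water surface; scored three weeks later.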

SMILES | herbicidal effect rating, B: Japanese bulrush
CCCC(=O)Oc1c(C)nn(C)c(=O)c1-c1c(-c2ccccc2OC(F)(F)F)sc2ccc(F)cc12 [2-044] | 3 (Herbicidal rate of 40% or more and less than 70%)
CCCC(=O)Oc1c(C)nn(C)c(=O)c1-c1c(-c2ccc(Cl)cc2)sc2ccc(F)cc12 [2-011] | 3 (Herbicidal rate of 40% or more and less than 70%)

The molecules below were run on barnyard grass (assay: Test Example 5: herbicidal effect by foliage application, plastic box (Table 20, symbol H)). Conditions: foliage application, 320 g/ha, 3 weeks after application.
Assay type: in vivo, barnyard grass (Echinochloa crus-galli)
How it was run: (§3)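 Post-emergence foliar test in sterilized diluvial soil. Compound applied as water-diluted emulsion at a predetermined rate to 14-day-old plants; evaluation at three weeks.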

SMILES | effect on barnyard grass (H)
CCCC(=O)Oc1c(C)nn(C)c(=O)c1-c1c(-c2ccccc2OC(F)(F)F)sc2ccc(F)cc12 [2-044] | 0 (Herbicidal rate of 5% or less (almost no effect))
CCCC(=O)Oc1c(C)nn(C)c(=O)c1-c1c(-c2ccc(Cl)cc2)sc2ccc(F)cc12 [2-011] | 5 (Herbicidal rate of 90% or more (almost completely withered))

The molecules below were run on southern crabgrass (assay: Test Example 4: herbicidal effect by soil treatment (Table 19, symbol F)). Conditions: 320 g/ha.
Assay type: in vivo, southern crabgrass (Digitaria ciliaris)
How it was run: as §1

SMILES | herbicidal effect rating, F: southern crabgrass
CCCC(=O)Oc1c(C)nn(C)c(=O)c1-c1c(-c2ccccc2OC(F)(F)F)sc2ccc(F)cc12 [2-044] | 3 (Herbicidal rate of 40% or more and less than 70%)
CCCC(=O)Oc1c(C)nn(C)c(=O)c1-c1c(-c2ccc(Cl)cc2)sc2ccc(F)cc12 [2-011] | 3 (Herbicidal rate of 40% or more and less than 70%)

The molecules below were run on windgrass (assay: Test Example 5: herbicidal effect by foliage application, plastic box (Table 20, symbol L)). Conditions: foliage application, 320 g/ha, 3 weeks after application.
Assay type: in vivo, windgrass (Apera spica-venti)
How it was run: as §3

SMILES | effect on windgrass (L)
CCCC(=O)Oc1c(C)nn(C)c(=O)c1-c1c(-c2ccccc2OC(F)(F)F)sc2ccc(F)cc12 [2-044] | 4 (Herbicidal rate of 70% or more and less than 90%)
CCCC(=O)Oc1c(C)nn(C)c(=O)c1-c1c(-c2ccc(Cl)cc2)sc2ccc(F)cc12 [2-011] | 3 (Herbicidal rate of 40% or more and less than 70%)

The molecules below were run on barnyard grass (assay: Test Example 4: herbicidal effect by soil treatment (Table 19, symbol H)). Conditions: 320 g/ha.
Assay type: in vivo, barnyard grass (Echinochloa crus-galli)
How it was run: as §1

SMILES | herbicidal effect rating, H: barnyard grass
CCCC(=O)Oc1c(C)nn(C)c(=O)c1-c1c(-c2ccccc2OC(F)(F)F)sc2ccc(F)cc12 [2-044] | 3 (Herbicidal rate of 40% or more and less than 70%)
CCCC(=O)Oc1c(C)nn(C)c(=O)c1-c1c(-c2ccc(Cl)cc2)sc2ccc(F)cc12 [2-011] | 3 (Herbicidal rate of 40% or more and less than 70%)

These molecules were tested on persian speedwell (assay: Test Example 5: herbicidal effect by foliage application, plastic box (Table 20, symbol R)). Conditions: foliage application, 320 g/ha, 3 weeks after application.
Assay type: in vivo, Persian speedwell (Veronica persica)
How it was run: as §3

SMILES | effect on persian speedwell (R)
CCCC(=O)Oc1c(C)nn(C)c(=O)c1-c1c(-c2ccccc2OC(F)(F)F)sc2ccc(F)cc12 [2-044] | 5 (Herbicidal rate of 90% or more (almost completely withered))
CCCC(=O)Oc1c(C)nn(C)c(=O)c1-c1c(-c2ccc(Cl)cc2)sc2ccc(F)cc12 [2-011] | 5 (Herbicidal rate of 90% or more (almost completely withered))

These molecules were tested on redroot pigweed (assay: Test Example 4: herbicidal effect by soil treatment (Table 19, symbol N)). Conditions: 320 g/ha.
Assay type: in vivo, redroot pigweed (Amaranthus retroflexus)
How it was run: as §1

SMILES | herbicidal effect rating, N: redroot pigweed
CCCC(=O)Oc1c(C)nn(C)c(=O)c1-c1c(-c2ccccc2OC(F)(F)F)sc2ccc(F)cc12 [2-044] | 5 (Herbicidal rate of 90% or more (almost completely withered))
CCCC(=O)Oc1c(C)nn(C)c(=O)c1-c1c(-c2ccc(Cl)cc2)sc2ccc(F)cc12 [2-011] | 4 (Herbicidal rate of 70% or more and less than 90%)

What follows are molecules tested on oval-leafed pondweed (assay: Test Example 2: herbicidal activity, application during weed generation under submerged conditions (Table 17, symbol C)). Conditions: AAH 320 g/ha; application during weed generation, submerged conditions.
Assay type: in vivo, oval-leafed pondweed (Monochoria vaginalis)
How it was run: as §2

SMILES | herbicidal effect rating, C: oval-leafed pondweed
CCCC(=O)Oc1c(C)nn(C)c(=O)c1-c1c(-c2ccccc2OC(F)(F)F)sc2ccc(F)cc12 [2-044] | 3 (Herbicidal rate of 40% or more and less than 70%)
CCCC(=O)Oc1c(C)nn(C)c(=O)c1-c1c(-c2ccc(Cl)cc2)sc2ccc(F)cc12 [2-011] | 3 (Herbicidal rate of 40% or more and less than 70%)

What follows are molecules tested on late watergrass (assay: Test Example 2: herbicidal activity, application during weed generation under submerged conditions (Table 17, symbol A)). Conditions: AAH 320 g/ha; application during weed generation, submerged conditions.
Assay type: in vivo, late watergrass (Echinochloa oryzicola)
How it was run: as §2

SMILES | herbicidal effect rating, A: late watergrass
CCCC(=O)Oc1c(C)nn(C)c(=O)c1-c1c(-c2ccccc2OC(F)(F)F)sc2ccc(F)cc12 [2-044] | 2 (Herbicidal rate of 20% or more and less than 40%)
CCCC(=O)Oc1c(C)nn(C)c(=O)c1-c1c(-c2ccc(Cl)cc2)sc2ccc(F)cc12 [2-011] | 2 (Herbicidal rate of 20% or more and less than 40%)

Each molecule was assayed on green foxtail (assay: Test Example 4: herbicidal effect by soil treatment (Table 19, symbol G)). Conditions: 320 g/ha.
Assay type: in vivo, green foxtail (Setaria viridis)
How it was run: as §1

SMILES | herbicidal effect rating, G: green foxtail
CCCC(=O)Oc1c(C)nn(C)c(=O)c1-c1c(-c2ccccc2OC(F)(F)F)sc2ccc(F)cc12 [2-044] | 4 (Herbicidal rate of 70% or more and less than 90%)
CCCC(=O)Oc1c(C)nn(C)c(=O)c1-c1c(-c2ccc(Cl)cc2)sc2ccc(F)cc12 [2-011] | 2 (Herbicidal rate of 20% or more and less than 40%)

What follows are molecules tested on wild oat (assay: Test Example 4: herbicidal effect by soil treatment (Table 19, symbol I)). Conditions: 320 g/ha.
Assay type: in vivo, wild oat (Avena fatua)
How it was run: as §1

SMILES | herbicidal effect rating, I: wild oat
CCCC(=O)Oc1c(C)nn(C)c(=O)c1-c1c(-c2ccccc2OC(F)(F)F)sc2ccc(F)cc12 [2-044] | 2 (Herbicidal rate of 20% or more and less than 40%)
CCCC(=O)Oc1c(C)nn(C)c(=O)c1-c1c(-c2ccc(Cl)cc2)sc2ccc(F)cc12 [2-011] | 0 (Herbicidal rate of 5% or less (almost no effect))
